From patent US20150353626A1, “APOLIPOPROTEIN A-I DERIVED PEPTIDES FOR TREATMENT OF HYPERGLYCAEMIA” (priority 2013, published 2015)
Ends that are not written are not given here.

Tests used:
[1] = tested on: AMPK; test: Western blot for phosphorylated AMPK in L6 myotube lysates; format: cell-based; settings: L6 myotubes, 60 minutes; rHDL 700 μg/ml apoA-I; phenformin 0.4 mmol/l; FIG. 3a,b
Description: (§1) Prior to stimulation or treatment cultured myoblast cells were serum starved for 4 hours in serum-free α-MEM and all subsequent treatments, including insulin or phenformin as positive controls (Sigma), were performed in serum free a-MEM. After treatments, cells were washed with ice cold PBS buffer and lysed on ice using a non-denaturing lysis buffer (1% Triton X-100, 50 mmol/l Tris, 150 mmol/l NaCl, pH 8.0) containing protease and phosphatase inhibitors (Roche). Lysates were centrifuged at 16,000×g, 20 minutes at 4° C. and BCA protein assay (Pierce) was performed on supernatants. Equal protein amounts were separated by SDS-PAGE and transferred to nitrocellulose membranes. pAMPK, AMPK, pACC, pAkt, Akt and tubulin were used for immunodetection with IRDye 800CW and 680RD secondary antibodies (LI-COR). Blots were imaged using the Odyssey Fc system and quantified using Image studio v2.0 software.
To dissect the effect of discoidal rHDL on a non-insulin dependent signaling pathway, we conducted western blotting using lysates from L6 myotubes incubated with rHDL. […] Phenformin was used as a positive control, inducing a 1.98±0.33-fold (p=≦0.05) and 2.7±0.74-fold (p=≦0.05) elevation of phosphorylated AMPK and ACC, respectively, at a concentration of 0.4 mmol/l. […] Representative immunoblots of those quantified for FIGS. 3a, c and f are given in FIGS. 3b, d and e, respectively. […]

[2] = tested on: ACC; test: Western blot for phosphorylated ACC in L6 myotube lysates; format: cell-based; settings: L6 myotubes, 60 minutes; rHDL 700 μg/ml apoA-I; phenformin 0.4 mmol/l; FIG. 3c,d
Description: as §1
To dissect the effect of discoidal rHDL on a non-insulin dependent signaling pathway, we conducted western blotting using lysates from L6 myotubes incubated with rHDL. […] Phenformin was used as a positive control, inducing a 1.98±0.33-fold (p=≦0.05) and 2.7±0.74-fold (p=≦0.05) elevation of phosphorylated AMPK and ACC, respectively, at a concentration of 0.4 mmol/l. […] Representative immunoblots of those quantified for FIGS. 3a, c and f are given in FIGS. 3b, d and e, respectively.

[3] = tested on: insulin resistant C57Bl/6 mice; test: Glucose tolerance test in high-fat diet fed (HFD) mice; format: in vivo, mouse; settings: glucose load 3 hours later
Description: Male C57BL/6 mice (Taconic) were used at 9-12 weeks of age. Animals were on a 12 hour light cycle with non-restricted food and water. The HFD animals were fed an HFD (D12492, 60% fat content; Research Diets) for 2 weeks. All animal procedures were approved by the Malmo/Lund Committee for Animal Experiment Ethics, Lund, Sweden. HFD mice fasted overnight (12 hours) were injected intra peritoneal (i.p.) with apoA-I peptides as listed above ([…] in PBS pH 7.4 for the 54-mer fragment and 6-7 mg/kg for other fragments in PBS, pH 7.4; control animals received NaCl) and this was followed by collection of serum samples at the indicated times. Glucose (50 mg/mouse) was injected i.p. 3 hours after treatments, followed by collection of serum samples at the indicated times. Blood glucose levels were measured (OnetouchUltra2; Lifescan), and insulin levels were assayed in serum using ELISA (Mercodia).

[4] = apo-state versus discoidal HDL; Saito et al. (2004); cited from earlier work
[5] = tested on: L6 myotubes; test: Glucose uptake in L6 myotubes (2-[3H]-deoxy-D-glucose); format: cell-based; settings: 2 h serum starved, 50 μg/ml (1.6 μmol/l) apoA-I or 100 nmol/l insulin, 1 hour, FIG. 1b
Description: L6 myoblasts (ATCC #CRL-1458) were grown in α-MEM (Invitrogen) supplemented with 10% FBS (Sigma) and 1% antibiotic/antimycotic (Penicillin, streptomycin, amphotericin B; Invitrogen). Differentiation to myotubes was achieved by switching from growth media to 2% FBS a-MEM for 6-7 or 6-12 days. Cells were maintained at 37° C. and 5% CO2.
Prior to stimulation (or treatment) cells were starved for 2 hours in serum-free a-MEM and all subsequent treatments, which were performed in triplicate and included cytochalasin B (Sigma) as a measure of cell associated non-specific radioactivity, were performed in uptake buffer (140 mmol/l NaCl, 20 mmol/l HEPES, 5 mmol/l KCl, 2.5 mmol/l MgSO4, 1 mmol/l CaCl2, pH 7.4). After stimulation, treatments were replaced with 10 μmol/l 2-deoxy-D-glucose (Sigma), 10 μmol/l 2-[3H]-deoxy-D-glucose (Perkin Elmer) in uptake buffer for 15 mins at room temperature. Cells were then washed twice with ice cold PBS and lysed with 1 mol/l NaOH on ice. Lysates were collected and radioactivity quantified by scintillation counting.
In order to investigate the effect of discodial HDL (rHDL) on GLUT4 translocation and glucose uptake, we produced recombinant human apoA-I and reconstituted HDL needed for cell incubations. L6 myotubes were incubated with 50 μg/ml (1.6 μmol/l) apoA-I for 1 hour followed by a glucose uptake assay as described above. […] Next, L6 myotubes were treated by incubation with 50 μg/ml discodial rHDL (expressed as total concentration of apoA-I in rHDL, given 2 apoA-I molecules per particle) for 1 hour. […] This experiment was thereafter repeated in more controlled manner including cell number and quality (cells were similarly treated during differentiation from myoblasts to multinuclear myotubes, with respect to the time between splitting cells, cell density, passage of cells used.) (FIG. 7c).
The relative effect of specific regions of apoA-I to increase glucose uptake was investigated using truncated protein fragments corresponding to residues 1-189 (N-terminal/central domain), 44-189 (central domain), 44-243 (central/C-terminal domain) and 190-243 (C-terminal domain) of full-length apoA-I (FIG. 4a). The treatments with incubation of truncated protein fragments were performed as described above for treatment of L6 myotubes with full-length apoA-I and followed by a glucose uptake assay as described above.
To test for the contribution of the constituent phospholipid to rHDL-induced glucose uptake in L6 myotubes, rHDL made with DMPC was also produced and compared to 100 nm DMPC vesicles containing no apoA-I protein. Stable 100 nm diameter vesicles can be synthesized with DMPC in the absence of apoA-I and was therefore used as a phospholipid control. The effect on the glucose uptake was tested as described above. […] To also test for the contribution of the constituent POPC phospholipid to rHDL-induced glucose uptake, rHDL made with POPC was compared with 100 nm POPC vesicles containing no apoA-I protein.

[6] = Circular dichroism spectroscopy, alpha-helical content; format: physicochemical; settings: 0.2 mg/ml in PBS pH 7.4, 25° C.
Description: CD measurements were performed on a Jasco J-810 spectropolarimeter equipped with a Jasco CDF-4265 Peltier set to 25° C. ApoA-I (full-length and the 190-234 polypeptide fragment) was diluted to 0.2 mg/ml in PBS (final concentration was 25 mmol/l phosphate, 25 mmol/l NaCl, pH 7.4), placed in a 0.1 mm quartz cuvette and, after extensive purging with nitrogen, scanned in the region 200 to 260 nm (scan speed was 20 nm/min). Averages of five scans were baseline-subtracted (PBS; 25 mmol/l phosphate, 25 mmol/l NaCl) and the alpha-helical content was calculated from the molar ellipticity at 222 nm as previously described (Petrlova et al. (2012) J Lipid Res 53: 390-398).

[7] = target: the molecule itself; test: blue native PAGE, coomassie stained; self-association (homo-oligomer) in solution and after 1 hour with L6 myotubes
From the text: It is known that the 190-234 polypeptide fragment can form discoidal particles by solubilisation of lipid in solution (Vedhachalan et al. (2010) J Biol Chem 285:31965-31973), which can be visualised as oligomers on native PAGE. […] Lipid-free apoA-I and rHDL were included on the gel as a full length protein monomer and dimer reference.

[8] = 18-mer peptides, single injection 7 mg/kg, FIG. 12
[9] = 23- or 27-mer peptides, single injection 6-7 mg/kg, FIG. 11

Molecule: [H]/N=C(/N)N/C(=N/[H])NCCc1ccccc1 [Phenformin, phenformin, reference compound]
- levels of phosphorylated AMPK [1]: 1.98±0.33 fold
- levels of phosphorylated ACC [2]: 2.7±0.74 fold

Molecule: SEQ ID NO: 2: fragment consisting of amino acids 190-207 of human ApoA-I (AEYHAKATEHLSTLSEKA; listed as Homo Sapiens)
- glucose tolerance capacity / capacity to clear blood glucose (in words) [3, 8]: showed particular increased capacity to clear blood glucose

Molecule: SEQ ID NO: 4: fragment consisting of amino acids 226-243 of human ApoA-I (KVSFLSALEEYTKKLNTQ; listed as Homo Sapiens)
- glucose tolerance capacity / capacity to clear blood glucose (in words) [3, 8]: showed particular increased capacity to clear blood glucose

Molecule: SEQ ID NO: 8: fragment consisting of amino acids 217-243 of human ApoA-I (GLLPVLESFKVSFLSALEEYTKKLNTQ; listed as Homo Sapiens)
- glucose tolerance capacity / capacity to clear blood glucose (in words) [3, 9]: showed particular increased capacity to clear blood glucose

Molecule: SEQ ID NO: 518: fragment consisting of amino acids 204-226 of human ApoA-I (SEKAKPALEDLRQGLLPVLESFK; listed as Homo Sapiens)
- glucose tolerance capacity / capacity to clear blood glucose (in words) [3, 9]: showed particular increased capacity to clear blood glucose

Molecule: apoA-I: recombinant full-length human apolipoprotein A-I, amino acids 1-243, lipid-free
- alpha-helical secondary structure [4]: about 44%
- increased glucose uptake [5]: 1.3 fold
- helical content from molar ellipticity at 222 nm [6]: 43%

B1: 190-243 polypeptide fragment of human apoA-I (SEQ ID NO: 1) (peptide, not shown: small tags and cut ends)
chain: AEYHAKATEHLSTLSEKAKPALEDLRQGLLPVLESFKVSFLSALEEYTKKLNTQ
modifications: also: N-terminal hexa-His tag (letters not given here)
notes: Recombinant, expressed in E. coli
- binding result [7]: binds
